Laboratory results published in patent publication US8778915B2, “Method for the treatment of central nervous system cancers and compositions related thereto” (Emory University, priority 2010, dated 2014).

How the values were obtained:
[1] = system: PC-12 cells; assay: Survival of PC-12 cells treated with cyclodextrin; assay type: cell-based; conditions: 48 h, very high concentration (320 uM)
Method: PC-12 cells were treated with different concentrations of cyclodextrin for 48 h. The values are expressed as mean±SD of duplicate samples. This experiment was done to answer the question if any compound can kill tumor cells at high doses. B-Cyclodextrin is an inert compound and used as a vehicle for Progesterone.

[2] = system: human neuroblastoma (SK-N-AS) cells; assay: MTT cell viability, single 48 h exposure, neuroblastoma cells; assay type: cell-based; conditions: single exposure 48 hours, at 5 μM and 10 μM, P<0.05 compared to control
Method: Data were evaluated by analysis of variance (ANOVA) followed by Dunnett test for individual comparisons. […] Values were expressed as means±SD of three experiments.
The human neuroblastoma cells (SK-N-AS) were cultured in a DMEM medium and E18 rat primary cortical neurons were cultured for 8-10 days in Neurobasal medium. […] An MTT reduction assay was used to estimate cell viability.

[3] = system: human neuroblastoma (SK-N-AS) cells; assay: Cell viability, repeated daily exposure for 3 and 6 days, neuroblastoma cells; assay type: cell-based; conditions: 0.1-160 μM
Method: Analysis of variance (ANOVA) followed by a Dunnett test was used to compare treatment groups to controls. […] Values were expressed as means±SD of three experiments.
FIG. 3 show the effects of PROG exposure for 3 and 6 days on the viability of Neuroblastoma cells (SK-N-AS). Cells were exposed to different concentrations of PROG (0.1, 1, 5, 10, 20, 80, 160 μM) daily for 3 days and 6 days. The statistical analysis of data was performed with analysis of variance (ANOVA) followed by Dunnett test to compare several treatment group to a single control group. The significance of results was set at P<0.05. Values are expressed as Means±SD of three experiments. Significant difference *P<0.05 when compared to control.

[4] = system: human glioblastoma cell line U87MG; assay: Cell viability, repeated exposure, glioblastoma-1 cells; assay type: cell-based
Method: (§1) Cells were exposed to different concentrations of PROG daily for 3 days and 6 days by replacing culture medium containing PROG. The stock solution of PROG was prepared in DMSO (Final concentration: <5 μl/ml medium). Data were analyzed using analysis of variance (ANOVA) followed by Dunnett's test. Values are expressed as Means±SD of two independent experiments with duplicate samples. Significant difference *P<0.05 when compared to control values.

[5] = system: human glioblastoma cell line U87dEGFR; assay: Cell viability, repeated exposure, glioblastoma-2 cells; assay type: cell-based
Method: as §1

[6] = system: U87MG glioblastoma cell line; assay: Morphology of glioblastoma cells, phase contrast microscope; assay type: cell-based, human; conditions: high concentrations (40, 80 and 160 μM)
[7] = system: human neuroblastoma xenograft; assay: Mouse xenograft model of human neuroblastoma; assay type: in vivo, female athymic nude mice; conditions: after 8 days of treatment
From the text: The vehicle group received saline only. Data were normalized to the baseline values (day 1) and expressed as percent change in daily tumor growth. […] The vehicle group received saline only. Values are expressed as mean tumor size for the different animals in each group. The significance of results was set at P<0.05 two-tailed. Values are expressed as % change in Means±SEM of tumor volume in different groups. […] Tumors were allowed to grow to ˜200 to 250 mm^3 and mice were divided into groups. […] This regimen was planned to be continued for up to two weeks to examine maximum tumor burden. All treated animals are being compared to appropriate controls for analysis of rate of daily tumor growth, tumor volume and regression. Toxicity is being assessed daily by survival, activity and body weight.

[8] = system: neuroblastoma cells; conditions: 10 μM; cited from earlier work
[9] = system: breast cancer; conditions: single injection of depot progesterone prior to breast cancer therapy, over 1000 women, 65 months after diagnosis and treatment; cited from earlier work
[10] = system: glioblastoma; conditions: first study; cited from earlier work
[11] = repeated exposure 3 and 6 days, high doses

OC[C@H]1O[C@@H]2O[C@H]3[C@H](O)[C@@H](O)[C@@H](O[C@H]4[C@H](O)[C@@H](O)[C@@H](O[C@H]5[C@H](O)[C@@H](O)[C@@H](O[C@H]6[C@H](O)[C@@H](O)[C@@H](O[C@H]7[C@H](O)[C@@H](O)[C@@H](O[C@H]8[C@H](O)[C@@H](O)[C@@H](O[C@H]1[C@H](O)[C@H]2O)O[C@@H]8CO)O[C@@H]7CO)O[C@@H]6CO)O[C@@H]5CO)O[C@@H]4CO)O[C@@H]3CO [B-Cyclodextrin]
cell death [1]: could not induce cell death

CC(=O)[C@H]1CC[C@H]2[C@@H]3CCC4=CC(=O)CC[C@]4(C)[C@H]3CC[C@]12C [progesterone, pregn-4-ene-3,20-dione]
cell death (MTT cell viability) [2]: significant cell death | cell death ([3]; daily exposure for 3 days): significant (P<0.05) cell death in a concentration dependant manner | cell death ([3]; daily exposure for 6 days, concentration dependant): cell death (P<0.05) was observed | effectiveness of six days versus 3 days of treatment ([4]; repeated exposure): more effective than 3 days | cell viability [4, 11]: killed both glioblastoma cell lines in a dose dependant manner | effectiveness of six days versus 3 days of treatment ([5]; repeated exposure): more effective than 3 days | cell viability [5, 11]: killed both glioblastoma cell lines in a dose dependant manner | changes in cell morphology [6]: lose their original shape, become detached from the surface, and eventually die | reduction of rate of tumor growth compared to saline vehicle ([7]; 50 mg/kg peritumoral injection once daily): ~50% | reduction of rate of tumor growth compared to saline vehicle ([7]; 100 mg/kg peritumoral injection once daily): ~50% | cell viability [8]: significant decrease in cell viability | reduction of mortality [9]: more than 35%

Avastin: Avastin (bevacizumab), FDA approved to treat glioblastoma at progression after standard therapy
patients who survived for at least 6 months without disease progressing [10]: 43% | patients who survived for at least one year [10]: 38% | patients with tumor shrinkage [10]: 28%
